From article PMC6522981, “Structure-based design generated novel hydroxamic acid based preferential HDAC6 lead inhibitor with on-target cytotoxic activity against primary choroid plexus carcinoma” (Journal of Enzyme Inhibition and Medicinal Chemistry, 2019) come the findings set out here.

Entries after “also recorded” stand apart in the source; their conditions may differ.

Experiment [1] deals with acetylated α-tubulin in CCHE-45 cells. In words: Western blot analysis of acetylated α-tubulin in CCHE-45 cells. The experiment is classed as cell-based. The settings on record: 100 µM, 24 h. The method, then:
CCHE-45 cells were treated with 100 µM of test compound for 24 h. HL60 cell line (a kind gift from Professor Azza Kamel from the National Cancer Institute, Cairo University); and is cultured in RPMI-1640 (Lonza, BE-12-702F) supplemented with 10% Fetal Bovine Serum (FBS, Gibco, 12483–020) and 100 U/ml penicillin and 100 µg/ml streptomycin (Lonza, DE17-602F), has also been treated with different concentrations of 10a in twofold serial dilutions for 24 h. Proteins were extracted from CCHE-45 cells using RIPA Lysis and Extraction Buffer (ThermoScientific, cat. No: 89901) containing 100x Halt Protease and […] Inhibitor Cocktail (ThermoScientific, cat. No. 78444). Followed by protein quantification using Bradford Reagent (Pierce Coomassie Plus (Bradford) Assay Reagent) (ThermoScientific, cat. No. 23238). A total of 50 µg proteins were loaded on a 10% SDS page using 30% Acrylamide/Bisacrylamide 19:1(Serva, cat. No. 10679.01) then transferred by semidry transfer method using Bio-Rad Trans-Blot Turbo transfer system on PVDF Transfer Membrane (ThermoScientific, cat. No. 88518). The membranes were incubated overnight at 4 °C in the primary antibodies Mouse monoclonal Anti-Beta Actin antibody (1:100, abcam, ab8224) and Mouse monoclonal Anti-acetylated α Tubulin (1:200, Santa Cruz Biotechnology, sc-23950). […]

A further experiment has as its target human HDAC4 (Homo sapiens, UniProt P56524). In words: HDAC4 inhibitor enzymatic assay, % inhibition at fixed concentration. The settings on record: read-out: %inhibition of HDACs at 10µM of test compound HDAC4.
A further experiment addresses human HDAC9 (Homo sapiens, UniProt Q9UKV0). In words: HDAC9 inhibitor enzymatic assay, % inhibition at fixed concentration. Particulars: read-out: %inhibition of HDACs at 10µM of test compound HDAC9.
The next experiment has as its target human HDAC3/NCOR2 (Homo sapiens, UniProt O15379). As to the kind of experiment: HDAC3/NCOR2 inhibitor enzymatic assay, % inhibition at fixed concentration. Particulars: read-out: %inhibition of HDACs at 10µM of test compound HDAC3.
Another experiment deals with human HDAC5 (Homo sapiens, UniProt Q9UQL6). As to the kind of experiment: HDAC5 inhibitor enzymatic assay, % inhibition at fixed concentration. Particulars: read-out: %inhibition of HDACs at 10µM of test compound HDAC5.
Chain of human HDAC5 (Q9UQL6 656-1122 limits assumed): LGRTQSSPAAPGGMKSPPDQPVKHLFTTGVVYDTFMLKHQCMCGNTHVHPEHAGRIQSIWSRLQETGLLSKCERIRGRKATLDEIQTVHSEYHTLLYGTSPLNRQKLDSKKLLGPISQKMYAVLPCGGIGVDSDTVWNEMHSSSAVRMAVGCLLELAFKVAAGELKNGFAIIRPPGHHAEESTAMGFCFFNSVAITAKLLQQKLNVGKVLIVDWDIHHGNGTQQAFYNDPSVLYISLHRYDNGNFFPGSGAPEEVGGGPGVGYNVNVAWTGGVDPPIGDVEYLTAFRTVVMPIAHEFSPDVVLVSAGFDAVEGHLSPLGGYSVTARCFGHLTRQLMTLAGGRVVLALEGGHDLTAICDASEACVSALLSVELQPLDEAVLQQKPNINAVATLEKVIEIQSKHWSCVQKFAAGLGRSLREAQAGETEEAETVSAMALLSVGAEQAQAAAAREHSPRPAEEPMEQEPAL
In another experiment the target is T1, human HDAC10 (Homo sapiens, UniProt Q969S8).
T1 sequence (Q969S8 1-669): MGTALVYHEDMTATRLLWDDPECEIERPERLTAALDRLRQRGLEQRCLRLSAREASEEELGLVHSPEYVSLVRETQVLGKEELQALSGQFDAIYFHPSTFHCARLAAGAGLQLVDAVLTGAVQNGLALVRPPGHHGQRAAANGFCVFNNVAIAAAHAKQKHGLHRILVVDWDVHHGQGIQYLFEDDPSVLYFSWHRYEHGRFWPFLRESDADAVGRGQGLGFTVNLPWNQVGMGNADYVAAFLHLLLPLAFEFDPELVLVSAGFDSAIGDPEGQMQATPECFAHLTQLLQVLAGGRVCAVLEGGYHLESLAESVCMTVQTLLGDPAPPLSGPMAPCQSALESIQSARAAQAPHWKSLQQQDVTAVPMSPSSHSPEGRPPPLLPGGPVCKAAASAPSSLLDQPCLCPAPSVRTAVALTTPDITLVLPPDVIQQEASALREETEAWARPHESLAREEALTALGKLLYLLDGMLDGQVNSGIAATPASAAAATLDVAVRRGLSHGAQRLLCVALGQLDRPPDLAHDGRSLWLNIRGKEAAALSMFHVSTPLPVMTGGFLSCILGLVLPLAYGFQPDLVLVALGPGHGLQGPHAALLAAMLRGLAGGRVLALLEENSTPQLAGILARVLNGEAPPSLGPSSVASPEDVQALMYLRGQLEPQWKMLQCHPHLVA
In words: HDAC10 inhibitor enzymatic assay, % inhibition at fixed concentration. Particulars: read-out: %inhibition of HDACs at 10µM of test compound HDAC10.

Another experiment addresses T2, human HDAC1 (Homo sapiens, UniProt Q13547).
T2 construct: purchased BPS Bioscience 50051
In words: HDAC1 inhibitor enzymatic assay, % inhibition at fixed concentration (BPS Bioscience, fluorogenic). The experiment is classed as biochemical. The settings on record: read-out: %inhibition of HDACs at 10µM of test compound HDAC1; 10 µM compound; mean of two replicates.

A further experiment has as its target T3, human HDAC7 (Homo sapiens, UniProt Q8WUI4).
T3 sequence (Q8WUI4 479-952 limits assumed): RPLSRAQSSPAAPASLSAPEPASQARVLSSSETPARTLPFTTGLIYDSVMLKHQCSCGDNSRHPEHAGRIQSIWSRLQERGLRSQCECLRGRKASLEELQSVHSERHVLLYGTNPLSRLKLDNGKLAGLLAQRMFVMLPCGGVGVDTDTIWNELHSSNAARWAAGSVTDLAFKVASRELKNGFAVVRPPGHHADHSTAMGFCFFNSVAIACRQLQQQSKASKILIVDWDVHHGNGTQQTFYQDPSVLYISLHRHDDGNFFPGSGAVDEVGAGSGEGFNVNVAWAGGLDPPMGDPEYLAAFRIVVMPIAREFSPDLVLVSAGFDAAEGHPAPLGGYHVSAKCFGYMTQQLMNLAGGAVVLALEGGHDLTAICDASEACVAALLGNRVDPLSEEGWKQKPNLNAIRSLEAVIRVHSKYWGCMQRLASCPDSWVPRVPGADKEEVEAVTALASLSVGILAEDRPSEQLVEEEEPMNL
In words: HDAC7 inhibitor enzymatic assay, % inhibition at fixed concentration. The settings on record: read-out: %inhibition of HDACs at 10µM of test compound HDAC7.

A further experiment has as its target T4, human HDAC2 (Homo sapiens, UniProt Q92769).
T4 construct: purchased BPS Bioscience 50002
In words: HDAC2 inhibitor enzymatic assay, % inhibition at fixed concentration. Format: biochemical. The settings on record: read-out: %inhibition of HDACs at 10µM of test compound HDAC2; 10 µM compound; mean of two replicates.

T2 sequence (Q13547 whole entry): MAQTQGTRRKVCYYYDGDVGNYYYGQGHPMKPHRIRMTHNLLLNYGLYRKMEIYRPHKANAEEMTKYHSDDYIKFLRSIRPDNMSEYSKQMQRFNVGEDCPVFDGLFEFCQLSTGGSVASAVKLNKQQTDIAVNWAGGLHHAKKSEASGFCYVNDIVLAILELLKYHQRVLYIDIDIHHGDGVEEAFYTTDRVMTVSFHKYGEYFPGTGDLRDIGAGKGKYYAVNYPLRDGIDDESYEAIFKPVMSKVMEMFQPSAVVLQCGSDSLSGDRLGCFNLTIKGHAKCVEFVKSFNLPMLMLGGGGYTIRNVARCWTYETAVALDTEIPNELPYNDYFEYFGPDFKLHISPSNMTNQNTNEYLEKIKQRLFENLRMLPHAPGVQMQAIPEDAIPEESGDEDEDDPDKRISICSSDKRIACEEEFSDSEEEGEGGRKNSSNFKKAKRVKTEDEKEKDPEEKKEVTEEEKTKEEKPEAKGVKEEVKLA
Chain of human HDAC3/NCOR2 (O15379 whole entry): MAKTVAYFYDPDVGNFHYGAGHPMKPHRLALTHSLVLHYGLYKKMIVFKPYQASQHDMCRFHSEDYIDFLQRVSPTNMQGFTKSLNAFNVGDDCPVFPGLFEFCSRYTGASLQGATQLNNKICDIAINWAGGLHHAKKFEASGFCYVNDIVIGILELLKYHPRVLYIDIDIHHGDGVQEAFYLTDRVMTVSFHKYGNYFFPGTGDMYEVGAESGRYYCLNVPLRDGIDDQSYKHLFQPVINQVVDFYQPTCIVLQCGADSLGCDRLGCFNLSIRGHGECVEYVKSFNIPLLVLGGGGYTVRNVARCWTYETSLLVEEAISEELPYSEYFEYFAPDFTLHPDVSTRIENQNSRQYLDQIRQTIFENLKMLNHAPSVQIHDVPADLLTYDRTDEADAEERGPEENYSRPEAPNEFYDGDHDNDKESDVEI
Chain of human HDAC3/NCOR2 (Q9Y618 395-489 partner limits assumed): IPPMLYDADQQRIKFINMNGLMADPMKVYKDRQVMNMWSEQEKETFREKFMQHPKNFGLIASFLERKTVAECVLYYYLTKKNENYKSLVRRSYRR
T4 sequence (Q92769 whole entry): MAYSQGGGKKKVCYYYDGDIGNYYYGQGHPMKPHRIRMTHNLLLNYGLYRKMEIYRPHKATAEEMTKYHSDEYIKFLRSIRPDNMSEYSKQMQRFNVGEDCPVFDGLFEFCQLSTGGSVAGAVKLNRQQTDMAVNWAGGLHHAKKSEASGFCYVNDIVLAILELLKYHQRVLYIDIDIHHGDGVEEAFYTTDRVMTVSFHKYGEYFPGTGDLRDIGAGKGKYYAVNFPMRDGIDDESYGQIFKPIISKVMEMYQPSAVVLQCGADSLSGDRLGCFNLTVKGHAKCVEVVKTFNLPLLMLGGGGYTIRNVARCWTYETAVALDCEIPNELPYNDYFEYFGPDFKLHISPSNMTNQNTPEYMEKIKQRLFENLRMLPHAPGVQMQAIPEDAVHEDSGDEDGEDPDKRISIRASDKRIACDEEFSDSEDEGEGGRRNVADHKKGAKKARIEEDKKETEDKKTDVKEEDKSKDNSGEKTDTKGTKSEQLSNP
Chain of human HDAC4 (P56524 627-1084 limits assumed): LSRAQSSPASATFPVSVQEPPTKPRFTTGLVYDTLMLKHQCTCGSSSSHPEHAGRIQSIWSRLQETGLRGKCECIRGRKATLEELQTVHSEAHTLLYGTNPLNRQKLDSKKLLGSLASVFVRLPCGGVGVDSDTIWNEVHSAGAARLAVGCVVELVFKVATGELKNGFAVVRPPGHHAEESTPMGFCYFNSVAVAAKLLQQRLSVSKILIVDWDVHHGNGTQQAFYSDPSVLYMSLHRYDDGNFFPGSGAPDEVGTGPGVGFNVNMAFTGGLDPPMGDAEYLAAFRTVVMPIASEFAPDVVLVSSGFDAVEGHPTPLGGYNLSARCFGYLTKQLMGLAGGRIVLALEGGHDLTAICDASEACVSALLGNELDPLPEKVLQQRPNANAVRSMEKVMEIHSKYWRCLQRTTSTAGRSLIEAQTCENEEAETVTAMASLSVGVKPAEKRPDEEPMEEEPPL
Chain of human HDAC9 (Q9UKV0 1-1066 isoform Q9UKV0-5): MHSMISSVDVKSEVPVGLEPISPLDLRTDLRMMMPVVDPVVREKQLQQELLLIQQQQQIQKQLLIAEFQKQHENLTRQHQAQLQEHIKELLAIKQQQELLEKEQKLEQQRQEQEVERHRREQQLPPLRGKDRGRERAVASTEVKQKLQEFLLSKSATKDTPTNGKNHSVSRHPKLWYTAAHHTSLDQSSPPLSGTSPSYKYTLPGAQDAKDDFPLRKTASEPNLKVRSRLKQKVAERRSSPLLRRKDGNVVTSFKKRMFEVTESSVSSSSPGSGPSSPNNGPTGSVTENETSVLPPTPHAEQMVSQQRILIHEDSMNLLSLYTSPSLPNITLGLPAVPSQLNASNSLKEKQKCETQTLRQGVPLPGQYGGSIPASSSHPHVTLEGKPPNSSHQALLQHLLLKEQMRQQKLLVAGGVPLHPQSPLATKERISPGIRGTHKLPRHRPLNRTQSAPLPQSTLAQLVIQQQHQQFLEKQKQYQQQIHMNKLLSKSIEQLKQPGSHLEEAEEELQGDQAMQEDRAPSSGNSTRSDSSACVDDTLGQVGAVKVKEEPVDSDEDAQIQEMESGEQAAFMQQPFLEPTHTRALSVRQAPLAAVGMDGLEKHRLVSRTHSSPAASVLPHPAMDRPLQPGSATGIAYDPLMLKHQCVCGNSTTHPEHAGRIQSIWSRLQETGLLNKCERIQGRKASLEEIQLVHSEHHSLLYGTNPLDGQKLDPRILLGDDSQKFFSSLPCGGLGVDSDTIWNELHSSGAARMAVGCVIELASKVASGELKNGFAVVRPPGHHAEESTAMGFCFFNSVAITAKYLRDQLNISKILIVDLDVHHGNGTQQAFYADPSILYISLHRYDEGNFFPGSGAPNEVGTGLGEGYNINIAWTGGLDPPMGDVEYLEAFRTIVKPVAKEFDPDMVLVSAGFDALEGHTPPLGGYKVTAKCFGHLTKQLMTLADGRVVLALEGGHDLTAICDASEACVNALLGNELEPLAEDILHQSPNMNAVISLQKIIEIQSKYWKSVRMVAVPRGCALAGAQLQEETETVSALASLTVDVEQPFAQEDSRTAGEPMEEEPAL

With `O=C(CCCSc1nc2ccccc2n1Cc1ccccc1)NO` [Compound 10a, 4-((1-benzyl-1H-benzo[d]imidazol-2-yl)thio)-N-hydroxybutanamide], in [1], the “acetylated α-tubulin level (Western blot)” value is given as “significant increase; also recorded: upregulated acetylated α-tubulin”. For the same compound, the inhibition at 10 µM on human HDAC4 amounted to 1%; on human HDAC9, 5%; at human HDAC3/NCOR2, 37%; on human HDAC5, 4%; at human HDAC10, 28%; at human HDAC1 it was 36%. The inhibition at 10 µM turned out to be 2% at human HDAC7 and 19% at human HDAC2.
